Test results published in patent publication US5369096A, “Glycolipid derivatives” (The Nisshin Oil Mills, Ltd., priority 1992, dated 1994).

How the values were obtained:
[1] = test system: human normal lymphocytes adhering to vascular endothelial cells of the normal human umbilical cord; assay: inhibition of adhesion of human normal lymphocytes to rhIL1β-stimulated vascular endothelial cells, oily emulsion; format: cell-based; conditions: 20 μg/ml equivalent; for Amount adhered (fluorescence intensity): rhIL1β 200 U/ml, 485 nm/535 nm
Protocol: A mixed solution of 6 mg of egg yolk lecithin (manufactured by Nacalaitesque Inc.), 30 μl of soybean oil J. P. (manufactured by Yoshida Seiyaku), 470 μl of distilled water for injection (manufacturedby Otsuka Seiyaku) and 125 μg of a compound of the invention was ultrasonicated (an output of 90 watts) for 10 min. to prepare an oily emulsion. The oily emulsion was further passed through a polycarbonate membrane filter having 0.2 μm average pore diameter (manufactured by Millipore) to provide an average particle size of 0.2 μm.
Vascular endothelial cells of the normal human umbilical cord grown to confluence were stimulated in 24-well plates with 200 U/ml of rhIL1ββat 37° C. for 4 hours. After removal of the supernatant by suction, oily emulsions each prepared from a compound of the invention in an amount of 20 μg/ml equivalent were added except for the rhIL1β-untreated (Sample 1) and treated groups (Samples 2 and 3). The mixtures were then allowed to react at room temperature for 30 min. Subsequently, human normal lymphocytes with 2',7'-bis(carboxyethyl)-5,6-carboxyfluorescence acetoxymethyl ester fluorescent dye enclosed was added at a level of 2×10^6 cells per well followed by centrifugal operation at 100 rpm for 20 min. Each well was washed three times followed by addition of 0.5 ml of 0.5% Triton X-100 and stirring. The contents were divided into 100 μl portions in 96-well plates and measurement was made on a Baxter fluorometer at 485 nm/535 nm.
4: rhIL1β-treated group+2→3 sialyl Lewis X-containing oily emulsion dispersion-treated group
5: rhIL1β-treated group+compound 5E-containing oily emulsion dispersion-treated group (OEG)
6: rhIL1β-treated group+compound 5A-containing oily emulsion dispersion-treated group (2EG)
7: rhIL1β-treated group+compound 5B-containing oily emulsion dispersion-treated group (3EG)
8: rhIL1β-treated group+compound 5C-containing oily emulsion dispersion-treated group (4EG)
9: rhIL1β-treated group+compound 5D-containing oily emulsion dispersion-treated group (5EG)
Amount adhered and percent inhibition of adhesion of human normal lymphocytes as measured from fluorescence intensity are shown in Table 5 below.

[2] = test system: Colo 201 cancer cells adhering to vascular endothelial cells of the normal human umbilical cord; assay: inhibition of adhesion of Colo 201 cancer cells to rhIL1β-stimulated vascular endothelial cells, liposome dispersion; format: cell-based; conditions: 11.8 μM equivalent; for Amount of Colo 201 cells adhered (fluorescence intensity): rhIL1β 200 U/ml, 485 nm
Protocol: A solution of 200 μg of phosphatidylcholine, 100 μg of cholesterol, 7.5 μg of dicetyl phosphate and 50 μg of a compound of the invention in a mixture of chloroform/methanol=2/1 (ca. 1 ml) was evaporated under reduced pressure to dryness followed by addition of 0.25 ml of a phosphate-buffered saline solution. The mixture was ultrasonicated (an output of 90 watts) for 5 min. and stirred (a vortex mixer) for 5 min. to form a liposome dispersion.
% Inhibition of adhesion=100-[(fluorescence intensity for rhIL1β-treated group+compound-free or a compound-containing liposome dispersion-treated group)-(fluorescence intensity for rhIL1β-untreated group)/(fluorescence intensity for rhIL1β-treated group-fluorescence intensity for rhIL1β-untreatedgroup)]×100
Vascular endothelial cells of the normal human umbilical cord grown to confluence were stimulated in 24-well plates with 200 U/ml of rhIL1β at 37° C. for 4 hours. After removal of the supernatant by suction liposome dispersions each prepared from 2→3 sialyl Le^x or a compound of the invention in an amount of 11.8 μM equivalent were added except for the rhIL1β-untreated and treated groups. The mixtures were then allowed to react at room temperature for 30 min. Subsequently, colon carcinoma cell line Colo 201 with 2',7'-bis-(carboxyethyl)-5,6-carboxyfluorescene acetoxymethyl ester fluorescent dye enclosed was added at a level of 1×10^6 cells per well followed by centrifugal operation at 100 rpm for 20 min. Each well was washed three times followed by addition of 0.5 ml of 0.5% Triton X-100 and stirring. The contents were divided into 100 μl portions in 96-well plates and measurement was made on a Baxter fluorometer at 485 nm.
4: rhIL1β-treated group+2→3 sialyl Le^x -containing liposome dispersion-treated group
5: rhIL1β-treated group+compound 5E-containing liposome dispersion-treated group (OEG)*
6: rhIL1β-treated group+compound 5A-containing liposome dispersion-treated group (2EG)
7: rhIL1β-treated group+compound 5B-containing liposome dispersion-treated group (3EG)
8: rhIL1β-treated group+compound 5C-containing liposome dispersion-treated group (4EG)
9: rhIL1β-treated group+compound 5D-containing liposome dispersion-treated group (5EG)
* OEG represents a control compound containing no CH2 CH2 O unit. The same shall apply hereinafter.
Amount adhered and % inhibition of adhesion of Colo 201 cancer cells as measured from fluorescence intensity are shown in Table 2 below.

SMILES	Amount adhered (fluorescence intensity) [1]	Amount of Colo 201 cells adhered (fluorescence intensity) [2]	% Inhibition of adhesion [1]	% Inhibition of adhesion ([2]; Colo 201 cells)
CCCCCCCCCCCCCCC(CCCCCCCCCCCCCC)C(=O)Nc1ccc(COCCOCCOCCOCCOCCO[C@@H]2O[C@H](CO)[C@@H](O[C@@H]3O[C@H](CO)[C@H](O)[C@H](O[C@]4(C(=O)O)C[C@H](O)[C@@H](NC(C)=O)[C@H]([C@H](O)[C@H](O)CO)O4)[C@H]3O)[C@H](O[C@@H]3O[C@@H](C)[C@@H](O)[C@@H](O)[C@@H]3O)[C@H]2O)cc1 [Compound 5D, O-(5-acetamido-3,5-dideoxy-D-glycero-α-D-galacto-2-nonulopyranosylonic acid)-(2→3)-O-β-D-galactopyranosyl-(1→4)-[O-α-L-fucopyranosyl-(1→3)-O-β-D-glucopyranosyl]-(1→1)-5-O-para-(2-tetradecylhexadecanoyl)aminobenzyl-3,6,9,12-tetraoxatetradecane-1,14-diol]	10324	240554		
CCCCCCCCCCCCCCC(CCCCCCCCCCCCCC)C(=O)Nc1ccc(COCCOCCOCCO[C@@H]2O[C@H](CO)[C@@H](O[C@@H]3O[C@H](CO)[C@H](O)[C@H](O[C@]4(C(=O)O)C[C@H](O)[C@@H](NC(C)=O)[C@H]([C@H](O)[C@H](O)CO)O4)[C@H]3O)[C@H](O[C@@H]3O[C@@H](C)[C@@H](O)[C@@H](O)[C@@H]3O)[C@H]2O)cc1 [Compound 5B, O-(5-acetamido-3,5-dideoxy-D-glycero-α-D-galacto-2-nonulopyranosylonic acid)-(2→3)-O-β-D-galactopyranosyl-(1→4)-[O-α-L-fucopyranosyl-(1→3)-O-β-D-glucopyranosyl]-(1→1)-8-O-para-(2-tetradecylhexadecanoyl)aminobenzyl-3,6-dioxaoctane-1,8-diol]	10045	212789		
CCCCCCCCCCCCCCC(CCCCCCCCCCCCCC)C(=O)Nc1ccc(COCCOCCO[C@@H]2O[C@H](CO)[C@@H](O[C@@H]3O[C@H](CO)[C@H](O)[C@H](O[C@]4(C(=O)O)C[C@H](O)[C@@H](NC(C)=O)[C@H]([C@H](O)[C@H](O)CO)O4)[C@H]3O)[C@H](O[C@@H]3O[C@@H](C)[C@@H](O)[C@@H](O)[C@@H]3O)[C@H]2O)cc1 [Compound 5A, O-(5-acetamido-3,5-dideoxy-D-glycero-α-D-galacto-2-nonulopyranosylonic acid)-(2→3)-O-β-D-galactopyranosyl-(1→4)-[O-α-L-fucopyranosyl-(1→3)-O-β-D-glucopyranosyl]-(1→1)-5-O-para-(2-tetradecylhexadecanoyl)aminobenzyl-3-oxapentane-1,5-diol]	9773	246293	65.8%	66.69%
CCCCCCCCCCCCCCC(CCCCCCCCCCCCCC)C(=O)Nc1ccc(COCCOCCOCCOCCO[C@@H]2O[C@H](CO)[C@@H](O[C@@H]3O[C@H](CO)[C@H](O)[C@H](O[C@]4(C(=O)O)C[C@H](O)[C@@H](NC(C)=O)[C@H]([C@H](O)[C@H](O)CO)O4)[C@H]3O)[C@H](O[C@@H]3O[C@@H](C)[C@@H](O)[C@@H](O)[C@@H]3O)[C@H]2O)cc1 [Compound 5C, O-(5-acetamido-3,5-dideoxy-D-glycero-α-D-galacto-2-nonulopyranosylonic acid)-(2→3)-O-β-D-galactopyranosyl-(1→4)-[O-α-L-fucopyranosyl-(1→3)-O-β-D-glucopyranosyl]-(1→1)-11-O-para-(2-tetradecylhexadecanoyl)aminobenzyl-3,6,9-trioxaundecane-1,11-diol]	13563	240330		
